Target: Stromelysin (Homo sapiens, UniProt P08254)
Experiment: MMP inhibition, particle concentration fluorescence assay
Assay type: biochemical
Conditions: in vitro; fluorescein/biotin substrate; MMP buffer pH 7.5; room temperature
Procedure: Inhibitory activity is evaluated in one or more of the MMP enzymes (stromelysin, gelatinase, and collagenase) in vitro using particle concentration fluorescence assay. An inhibitor binds to MMP enzymes which prevents the degradation of a substrate by stromelysin, gelatinase, or collagenase. The substrate has attached to it a fluorescein and a biotin moiety. The intact substrate then binds to an avidin-coated particle via the biotin moiety. Once the particle is washed and dried, a fluorescent signal is generated since the fluorescent group is attached to the particle. Without an inhibitor present, the substrate is degraded by MMP enzymes and the fluorescein group is removed, therefore, no fluorescent signal can be detected. Testing compounds are dissolved in DMSO to the desired concentration, then the solutions are diluted to 1:5 with MMP buffer (50 mM Tris-HCl, pH 7.5; 150 mM NaCl; 0.02% NaN3). Serial two-fold dilutions of each compound are prepared. A concentrated, activated enzyme solution is transferred into each plate of the testing compounds, and the mixture is incubated at room temperature for 15 minutes. […] At this point, the substrate mixture is mixed with 0.1% avidin-coated polystyrene particles. After 15 minutes, the fluorescence values are measured following filtration and washing of the beads. Ki values are then calculated.

Sequence of Stromelysin (P08254 100-477): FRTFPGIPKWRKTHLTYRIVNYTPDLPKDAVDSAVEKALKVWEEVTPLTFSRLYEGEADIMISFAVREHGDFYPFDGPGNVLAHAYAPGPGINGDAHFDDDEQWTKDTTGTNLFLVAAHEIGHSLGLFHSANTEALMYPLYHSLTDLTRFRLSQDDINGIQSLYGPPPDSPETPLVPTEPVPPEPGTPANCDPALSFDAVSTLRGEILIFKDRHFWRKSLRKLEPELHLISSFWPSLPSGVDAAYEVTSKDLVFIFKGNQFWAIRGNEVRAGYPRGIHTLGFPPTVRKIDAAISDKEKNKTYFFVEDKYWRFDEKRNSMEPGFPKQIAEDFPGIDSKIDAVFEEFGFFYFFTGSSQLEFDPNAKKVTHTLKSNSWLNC

Ki [nM] | Compound
9560 | COC(=O)[C@@H](NC(=O)Nc1n[nH]c(=S)s1)[C@@H](C)OCc1ccccc1 [Example 64, N-[[(4,5-Dihydro-5-thioxo-1,3,4-thiadiazol-2-yl)amino]carbonyl]-O-(phenylmethyl)-L-threonine methyl ester]
2550 | COC(=O)[C@H](CSCc1ccc(C)cc1)NC(=O)Nc1n[nH]c(=S)s1 [Example 65, N-[[(4,5-Dihydro-5-thioxo-1,3,4-thiadiazol-2-yl)amino]carbonyl]-S-[(4-methylphenyl)methyl]-L-cysteine methyl ester]
2050 | COC(=O)[C@H](CSCc1ccc(OC)cc1)NC(=O)Nc1n[nH]c(=S)s1 [Example 68, N-[[(4,5-Dihydro-5-thioxo-1,3,4-thiadiazol-2-yl)amino]carbonyl]-S-[(4-methoxyphenyl)methyl]-L-cysteine methyl ester]
1200 | CNC(=O)[C@H](CSCc1ccc(C)cc1)NC(=O)Nc1n[nH]c(=S)s1 [Example 70, 2-[[[(4,5-Dihydro-5-thioxo-1,3,4-thiadiazol-2-yl)amino]-carbonyl]amino]-N-methyl-3-[[(4-methylphenyl)methyl]thio]-(R)-propanamide]
2510 | COC(=O)[C@H](CSCc1ccccc1)NC(=O)Nc1n[nH]c(=S)s1 [Example 71, N-[[(4,5-Dihydro-5-thioxo-1,3,4-thiadiazol-2-yl)amino]carbonyl]-S-(phenylmethyl)-L-cysteine methyl ester]
1050 | CNC(=O)[C@H](CSCc1ccccc1)NC(=O)Nc1n[nH]c(=S)s1 [Example 72, 2-[[[(4,5-Dihydro-5-thioxo-1,3,4-thiadiazol-2-yl)amino]carbonyl]-amino]-N-methyl-3-[(phenylmethyl)thio]-(R)-propanamide]
1600 | CNC(=O)[C@H](COC(C)(C)C)NC(=O)Nc1n[nH]c(=S)s1 [Example 73, 2-[[[(4,5-Dihydro-5-thioxo-1,3,4-thiadiazol-2-yl)amino]carbonyl]-amino]-3-(1,1-dimethylethoxy)-N-methyl-(S)-propanamide]
3020 | COC(=O)[C@H](Cc1ccc(-c2ccccc2)cc1)NC(=O)Nc1n[nH]c(=S)s1 [Example 78, α-[[[(4,5-Dihydro-5-thioxo-1,3,4-thiadiazol-2-yl)amino]carbonyl]amino]-(S)-(1,1'-biphenyl)-4-propanoic acid methyl ester]
7390 | CNC(=O)[C@H](Cc1ccc(-c2ccccc2)cc1)NC(=O)Nc1n[nH]c(=S)s1 [Example 79, α-[[[(4,5-Dihydro-5-thioxo-1,3,4-thiadiazol-2-yl)amino]carbonyl]amino]-N-methyl-(S)-(1,1'-biphenyl)-4-propanamide]
800 | COC(=O)[C@H](Cc1ccc(C(C)(C)C)cc1)NC(=O)Nc1n[nH]c(=S)s1 [Example 80, N-[[(4,5-Dihydro-5-thioxo-1,3,4-thiadiazol-2-yl)amino]carbonyl]-4-(1,1-dimethylethyl)-L-phenylalanine methyl ester]
1820 | CNC(=O)[C@H](Cc1ccc(C(C)(C)C)cc1)NC(=O)Nc1n[nH]c(=S)s1 [Example 81, α-[[[(4,5-dihydro-5-thioxo-1,3,4-thiadiazol-2-yl)amino]carbonyl]amino]-4-(1,1-dimethylethyl)-N-methyl-(S)-benzenepropanamide]

Compound | Ki [nM]
COC(=O)[C@@H](NC(=O)Nc1n[nH]c(=S)s1)[C@@H](C)OC(C)(C)C [Example 74] | 1870
